Laboratory results as given in ChEMBL document CHEMBL1671839 (ACS Med Chem Lett, 2011).
Each block holds one compound with its values, some of them ahead of it.

Experiments:
in vivo [1] = conditions: Wistar, rat, iv, 1 mg/kg
Rattus norvegicus = species: Rattus norvegicus; conditions: in vivo, iv, 1 mg/kg
in vivo [2] = conditions: Wistar, rat, iv, 1 mg/kg; remark: listed apart in the source
in vivo [3] = conditions: Wistar, rat, po, 10 mg/kg
in vivo [4] = conditions: Wistar, rat, po, 10 mg/kg; remark: listed apart in the source
[5] = AUC in Beagle dog at 1 mg/kg, iv; assay type: ADME, organism-based, Canis lupus familiaris; design: dose 1 mg/kg, route intravenous; conditions: plasma
[6] = Cmax in cynomolgus monkey at 1 mg/kg, po; assay type: ADME, organism-based, Macaca fascicularis; design: dose 1 mg/kg, route oral; conditions: in vivo
[7] = AUC in cynomolgus monkey at 0.5 mg/kg, iv; assay type: ADME, organism-based, Macaca fascicularis; design: dose 0.5 mg/kg, route intravenous; conditions: plasma
[8] = Half life in cynomolgus monkey at 0.5 mg/kg, iv; assay type: ADME, organism-based, Macaca fascicularis; design: dose 0.5 mg/kg, route intravenous; conditions: in vivo
[9] = Tmax in cynomolgus monkey at 1 mg/kg, po; assay type: ADME, organism-based, Macaca fascicularis; design: dose 1 mg/kg, route oral; conditions: in vivo
[10] = Oral bioavailability in Beagle dog at 1 mg/kg; assay type: ADME, organism-based, Canis lupus familiaris; conditions: in vivo
[11] = Cmax in BALB/c mouse at 10 mg/kg, po; assay type: ADME, organism-based; design: dose 10 mg/kg, route oral; conditions: in vivo
[12] = Cmax in Beagle dog at 1 mg/kg, po; assay type: ADME, organism-based, Canis lupus familiaris; design: dose 1 mg/kg, route oral; conditions: in vivo
[13] = Plasma clearance in cynomolgus monkey at 0.5 mg/kg, iv; assay type: ADME, organism-based, Macaca fascicularis; design: dose 0.5 mg/kg, route intravenous
[14] = Terminal phase volume of distribution […] in cynomolgus monkey at 0.5 mg/kg, iv; assay type: ADME, organism-based, Macaca fascicularis; design: dose 0.5 mg/kg, route intravenous; conditions: in vivo, read-out: Vbeta
[15] = Tmax in BALB/c mouse at 10 mg/kg, po; assay type: ADME, organism-based; design: dose 10 mg/kg, route oral; conditions: in vivo
in vitro [16] = conditions: human, liver microsomes
in vivo [17] = conditions: Wistar, rat, plasma, iv, 1 mg/kg
in vivo [18] = conditions: Wistar, rat, po, 10 mg/kg; remark: listed apart in the source
in vitro [19] = conditions: rat, liver microsomes
[20] = Plasma clearance in Beagle dog at 1 mg/kg, iv; assay type: ADME, organism-based, Canis lupus familiaris; design: dose 1 mg/kg, route intravenous
[21] = Terminal phase volume of distribution […] in Beagle dog at 1 mg/kg, iv; assay type: ADME, organism-based, Canis lupus familiaris; design: dose 1 mg/kg, route intravenous; conditions: in vivo, read-out: Vbeta
[22] = Oral bioavailability in cynomolgus monkey at 1 mg/kg; assay type: ADME, organism-based, Macaca fascicularis; conditions: in vivo
[23] = Half life in Beagle dog at 1 mg/kg, iv; assay type: ADME, organism-based, Canis lupus familiaris; design: dose 1 mg/kg, route intravenous; conditions: in vivo
in vivo [24] = conditions: Wistar, rat, plasma, iv, 1 mg/kg; remark: listed apart in the source
[25] = Volume of distribution at steady state in Beagle dog at 1 mg/kg, iv; assay type: ADME, organism-based, Canis lupus familiaris; design: dose 1 mg/kg, route intravenous; conditions: in vivo, read-out: Vdss
[26] = Volume of distribution at steady state in cynomolgus monkey at 0.5 mg/kg, iv; assay type: ADME, organism-based, Macaca fascicularis; design: dose 0.5 mg/kg, route intravenous; conditions: in vivo, read-out: Vdss
[27] = Tmax in Beagle dog at 1 mg/kg, po; assay type: ADME, organism-based, Canis lupus familiaris; design: dose 1 mg/kg, route oral; conditions: in vivo

SMILES: CC(=O)Nc1cnc(-c2ccncc2)c(-c2ccco2)n1
half-life (in vivo [1]): 0.4 h | AUC (Rattus norvegicus): 751000 ng·h/mL | Vd (in vivo [2]): 0.8 L/kg | Tmax (in vivo [3]): 1.1 h | bioavailability (in vivo [4]): 93%

AUC [5]: 13600 ng·h/mL | Cmax [6]: 5900 ng/mL | AUC [7]: 3400 ng·h/mL | half-life (in vivo [1]): 0.8 h | half-life [8]: 3.8 h | Tmax [9]: 3 h | bioavailability [10]: 98% | Cmax [11]: 17400 ng/mL | Cmax [12]: 820 ng/mL | clearance [13]: 3.4 mL/min/kg | Vd [14]: 0.8 L/kg | Tmax [15]: 0.25 h | metabolised at 0.5 h, 5 µM (in vitro [16]): 5% | clearance (in vivo [17]): 18.3 mL/min/kg | Cmax (in vivo [18]): 7110 ng/mL | Vd (in vivo [2]): 1.2 L/kg | Tmax (in vivo [3]): 0.25 h | bioavailability (in vivo [4]): 100% | metabolised at 0.5 h, 5 µM (in vitro [19]): 13% | clearance [20]: 1.7 mL/min/kg | Vd [21]: 0.9 L/kg | bioavailability [22]: 100% | half-life [23]: 8.6 h | AUC (in vivo [24]): 920 ng·h/mL | Vd [25]: 0.8 L/kg | Vd [26]: 0.4 L/kg | Tmax [27]: 2 h
SMILES: O=C(Nc1cnc(-c2ccncc2F)c(-c2cccnc2)n1)C1CC1 [LAS101057]
